Results taken from patent US9163030B2 (priority 2012, dated 2015).
Read-outs that look alike come from different tables or passages of the source.

Columns and labels:
[1] = target: T1, DOR (Homo sapiens, UniProt P41143); assay: Opioid binding assay, displacement of [3H]DADLE, hDOR-CHO cell membranes; details: for fold weaker in binding to DOR compared to 14-benzyloxy counterpart: 18a vs 17b, 18d vs 17f
T1 construct: expressed in transfected cells; host or cells: CHO (hDOR-CHO)

[2] = target: T2, MOR (Homo sapiens, UniProt P35372); assay: [35S]GTP-γ-S binding assay, hMOR-CHO cells; assay type: biochemical; details: for agonist activity MOR EC50: stimulation of [35S]GTP-γ-S binding, no stim = no stimulation; for Emax / agonist activity MOR Emax: normalized to stimulation by DAMGO; for Emax: read-out: agonist activity MOR Emax; for functional activity profile at MOR: in words
T2 construct: expressed in transfected cells; host or cells: CHO (hMOR-CHO)
T2 sequence (P35372 whole entry): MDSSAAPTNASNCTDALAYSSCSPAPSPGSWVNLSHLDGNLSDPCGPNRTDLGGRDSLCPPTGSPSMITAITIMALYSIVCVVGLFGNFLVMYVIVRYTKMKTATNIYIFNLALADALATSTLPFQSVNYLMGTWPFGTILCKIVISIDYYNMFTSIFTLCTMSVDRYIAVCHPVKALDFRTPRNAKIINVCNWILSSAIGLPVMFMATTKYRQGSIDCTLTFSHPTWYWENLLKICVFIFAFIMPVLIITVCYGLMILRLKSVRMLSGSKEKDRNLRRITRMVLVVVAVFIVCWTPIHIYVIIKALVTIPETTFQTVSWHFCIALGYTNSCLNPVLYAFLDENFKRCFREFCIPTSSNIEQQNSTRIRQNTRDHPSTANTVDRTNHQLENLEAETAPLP

[3] = target: T2, MOR; assay: Opioid binding assay, displacement of [3H]DAMGO, hMOR-CHO cell membranes; details: for selectivity ratio MOR/DOR: ratio of Ki values, CHO membranes
[4] = target: T3, KOR (Homo sapiens, UniProt P41145); assay: biochemical; assay type: binding
T3 construct: expressed in transfected cells; host or cells: CHO (hKOR-CHO)
T3 sequence (P41145 whole entry): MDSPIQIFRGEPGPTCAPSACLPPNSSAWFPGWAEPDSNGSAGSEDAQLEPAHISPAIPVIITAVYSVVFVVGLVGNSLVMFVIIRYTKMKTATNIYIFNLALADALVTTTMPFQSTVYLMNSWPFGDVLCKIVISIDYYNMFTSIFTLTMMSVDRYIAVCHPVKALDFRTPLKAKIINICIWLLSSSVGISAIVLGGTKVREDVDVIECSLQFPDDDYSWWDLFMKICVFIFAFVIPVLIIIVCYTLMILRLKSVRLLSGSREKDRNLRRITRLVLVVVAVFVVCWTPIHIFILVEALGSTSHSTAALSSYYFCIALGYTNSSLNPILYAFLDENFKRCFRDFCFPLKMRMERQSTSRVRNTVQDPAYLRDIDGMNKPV

[5] = target: T4, DOR (Mus musculus, UniProt P32300); assay: [35S]GTP-γ-S binding assay, NG108-15 cells; assay type: biochemical; details: for agonist activity DOR EC50: stimulation of [35S]GTP-γ-S binding, no stim = no stimulation; for functional activity profile at DOR: in words; for Emax: read-out: agonist activity DOR Emax
T4 construct: endogenous in cells; host or cells: NG108-15 neuroblastoma x glioma cells
T4 sequence (P32300 whole entry): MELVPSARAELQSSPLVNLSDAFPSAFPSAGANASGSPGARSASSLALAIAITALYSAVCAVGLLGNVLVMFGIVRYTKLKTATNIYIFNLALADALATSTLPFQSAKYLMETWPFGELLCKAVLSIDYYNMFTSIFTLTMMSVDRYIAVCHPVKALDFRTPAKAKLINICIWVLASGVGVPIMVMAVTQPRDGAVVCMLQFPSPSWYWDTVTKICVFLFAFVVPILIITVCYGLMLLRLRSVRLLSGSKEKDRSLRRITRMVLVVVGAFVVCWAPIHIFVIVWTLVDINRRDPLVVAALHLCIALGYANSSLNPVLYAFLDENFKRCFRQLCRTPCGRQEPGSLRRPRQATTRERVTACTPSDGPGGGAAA

[6] = target: T3, KOR; assay: [35S]GTP-γ-S binding assay, hKOR-CHO cells; assay type: biochemical
[7] = tested on: mice; assay: 55° C. warm-water tail-withdrawal test; assay type: in vivo, mouse; details: for Antinociceptive A50 Values: calculated at time of peak effect; for antinociceptive effect: in words; for effect of naloxone pretreatment on antinociceptive effect: naloxone 10 mg/kg ip, -10 min, icv test compound
[8] = normalized to stimulation by standard agonist
[9] = ratio of Ki values, CHO membranes
[10] = stimulation of [35S]GTP-γ-S binding, no stim = no stimulation
[11] = shift in EC50 of standard agonist

T1 sequence (P41143 whole entry): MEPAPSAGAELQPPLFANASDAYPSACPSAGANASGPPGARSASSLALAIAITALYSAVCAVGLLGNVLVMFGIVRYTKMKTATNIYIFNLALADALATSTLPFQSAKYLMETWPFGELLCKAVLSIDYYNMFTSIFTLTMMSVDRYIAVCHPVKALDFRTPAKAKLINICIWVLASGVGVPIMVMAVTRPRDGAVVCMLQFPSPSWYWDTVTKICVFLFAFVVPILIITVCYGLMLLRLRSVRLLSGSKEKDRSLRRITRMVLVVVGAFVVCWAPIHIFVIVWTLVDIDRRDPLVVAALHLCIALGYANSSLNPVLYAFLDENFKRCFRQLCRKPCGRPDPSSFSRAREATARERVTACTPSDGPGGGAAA

Row | Structure (SMILES) | Ki [1] | agonist activity MOR EC50 [2] | melting point | Ki [3] | selectivity ratio MOR/DOR [3] | selectivity ratio KOR/DOR [4] | Ki ([4]; read-out: Ki ± SEM KOR) | agonist activity DOR EC50 [5] | EC50 [6] | Emax [6, 8] | Ki [4] | EC50 [2] | Emax [2] | selectivity ratio KOR/DOR [4, 9] | functional activity profile at DOR [5] | also measured
1 | COC12Cc3cc(-c4ccc(Cl)cc4)cnc3C3Oc4c(O)ccc5c4C31CCN(CC1CC1)C2C5 (stereo not drawn) [Compound 17a, 5′-(4-Chlorophenyl)-17-(cyclopropylmethyl)-6,7-didehydro-4,5α-epoxy-3-hydroxy-14-methoxypyrido[2′,3′:6,7]morphinan] | 1.95 ± 0.14 nM | no stim | 170 to 173 °C | 41.9 ± 2.8 nM | 22 | 2.8 | 5.37 ± 0.48 nM | no stim^b | – | – | – | – | – | – | – | –
2 | Oc1ccc2c3c1OC1c4ncc(-c5ccc(Cl)cc5)cc4CC4(OCc5ccccc5)C(C2)N(CC2CC2)CCC314 (stereo not drawn) [Compound 17b, 14-(Benzyloxy)-5′-(4-chlorophenyl)-17-(cyclopropylmethyl)-6,7-didehydro-4,5α-epoxy-3-hydroxypyrido[2′,3′:6,7]morphinan] | 1.91 ± 0.08 nM | no stim | 130 to 132 °C | 8.42 ± 0.29 nM | 4.4 | 2.8 | – | no stim | 27 ± 9 nM | 15 ± 1% | 5.33 ± 0.27 nM | – | – | – | – | –
3 | Oc1ccc2c3c1OC1c4ncc(-c5ccc(Cl)cc5)cc4CC4(OCC=Cc5ccccc5)C(C2)N(CC2CC2)CCC314 (stereo not drawn) [Compound 17c, 5′-(4-Chlorophenyl)-14-cinnamyloxy-17-(cyclopropylmethyl)-6,7-didehydro-4,5α-epoxy-3-hydroxypyrido[2′,3′:6,7]morphinan] | 3.74 ± 0.32 nM | no stim | 138 to 140 °C | 3.03 ± 0.38 nM | 0.81 | 0.89 | – | no stim | – | – | 3.31 ± 0.3 nM | – | – | – | – | –
4 | COC12Cc3cc(-c4ccc(Cl)cc4)cnc3C3Oc4c(O)ccc5c4C31CCN(C)C2C5 (stereo not drawn) [Compound 17e, 5′-(4-Chlorophenyl)-6,7-didehydro-4,5α-epoxy-3-hydroxy-14-methoxy-17-methylpyrido[2′,3′:6,7]morphinan] | 1.63 ± 0.08 nM | – | 296 to 299 °C (dec.) | 7.89 ± 0.33 nM | 4.8 | – | 28 ± 1.59 nM | no stim | 633 ± 108 nM | 36 ± 2% | – | 379 nM | 118 ± 4% | 17 | antagonist activity at DOR | analgesic potency, fold weaker than other tested ligands ([7]; icv): 6 fold; Antinociceptive A50 Values ([7]; icv): 1.44 nmol; antinociceptive effect ([7]; icv): full antinociceptive effects; effect of naloxone pretreatment on antinociceptive effect [7]: blocked by naloxone pretreatment
5 | CN1CCC23c4c5ccc(O)c4OC2c2ncc(-c4ccc(Cl)cc4)cc2CC3(OCc2ccccc2)C1C5 (stereo not drawn) [Compound 17f, 14-Benzyloxy-5′-(4-chlorophenyl)-6,7-didehydro-4,5α-epoxy-3-hydroxy-17-methylpyrido[2′,3′:6,7]morphinan] | 1.78 ± 0.15 nM | – | 228 to 232 °C | 4.69 ± 0.17 nM | 2.6 | – | 49 ± 6 nM | – | 215 ± 54 nM | 32 ± 2% | – | 301 nM | 119 ± 3% | 28 | weak to potent partial agonist activity at DOR | Emax [5]: 52 ± 1%
6 | CN1CCC23c4c5ccc(O)c4OC2c2ncc(-c4ccc(Cl)cc4)cc2CC3(OCC=Cc2ccccc2)C1C5 (stereo not drawn) [Compound 17g, 5′-(4-Chlorophenyl)-14-cinnamyloxy-6,7-didehydro-4,5α-epoxy-3-hydroxy-17-methylpyrido[2′,3′:6,7]morphinan] | 1.14 ± 0.11 nM | – | – | 0.41 ± 0.04 nM | 0.36 | – | 1.55 ± 0.09 nM | – | – | – | – | 4.27 nM | 130 ± 3% | 1.4 | weak to potent partial agonist activity at DOR | Antinociceptive A50 Values ([7]; icv): 0.23 nmol; antinociceptive effect ([7]; icv): full antinociceptive effects; effect of naloxone pretreatment on antinociceptive effect [7]: blocked by naloxone pretreatment; Emax [5]: 84%
7 | O=C(OC12Cc3cc(-c4ccc(Cl)cc4)cnc3C3Oc4c(O)ccc5c4C31CCN(CC1CC1)C2C5)c1ccccc1 (stereo not drawn) [Compound 18a, 14-Benzoyloxy-5′-(4-chlorophenyl)-17-(cyclopropylmethyl)-6,7-didehydro-4,5α-epoxy-3-hydroxypyrido[2′,3′: 6,7]morphinan] | 87 ± 8 nM | no stim | 158 to 162 °C | 192 ± 21 nM | 2.2 | 1.3 | – | no stim | – | – | 117 ± 6 nM | – | – | – | – | fold weaker in binding to DOR compared to 14-benzyloxy counterpart [1]: 45 fold; agonist activity KOR EC50 [6, 10]: no stim
8 | O=C(Cc1ccccc1)OC12Cc3cc(-c4ccc(Cl)cc4)cnc3C3Oc4c(O)ccc5c4C31CCN(CC1CC1)C2C5 (stereo not drawn) [Compound 18b, 5′-(4-Chlorophenyl)-17-(cyclopropylmethyl)-6,7-didehydro-4,5α-epoxy-3-hydroxy-14-(phenylacetoxy)pyrido[2′,3′:6,7]morphinan] | 1.33 ± 0.1 nM | no stim | 118 to 120 °C | 1.04 ± 0.25 nM | 0.78 | – | 3.1 ± 0.19 nM | no stim | 26 ± 9 nM | 34 ± 2% | – | – | – | 2.3 | – | –
9 | O=C(CCc1ccccc1)O[C@@]12Cc3cc(-c4ccc(Cl)cc4)cnc3[C@@H]3Oc4c(O)ccc5c4[C@@]31CCN(CC1CC1)[C@@H]2C5 [Compound 18c, 5′-(4-Chlorophenyl)-17-(cyclopropylmethyl)-6,7-didehydro-4,5α-epoxy-3-hydroxy-14-(3-phenylpropionyloxy)pyrido[2′,3′:6,7]morphinan] | – | no stim | – | – | 0.62 | – | 12 ± 13 nM | no stim | – | – | – | – | – | 2.9 | – | Ki ([1]; read-out: Ki ± SEM DOR): 4.13 ± 0.29 nM; agonist activity KOR Emax [6, 8]: 25 ± 1%; antagonist activity KOR Ke [6, 11]: 14 ± 2 nM; EC50 ([6]; stimulation of [35S]GTP-γ-S binding, no stim = no stimulation, read-out: agonist activity KOR EC50): 13 ± 4 nM; antagonist activity MOR Ke [2, 11]: 13 ± 1.7 nM; Ki ([3]; read-out: Ki ± SEM MOR): 2.58 ± 0.12 nM; antagonist activity DOR Ke [5, 11]: 1.86 ± 0.21 nM
10 | CN1CCC23c4c5ccc(O)c4OC2c2ncc(-c4ccc(Cl)cc4)cc2CC3(OC(=O)c2ccccc2)C1C5 (stereo not drawn) [Compound 18d, 14-Benzoyloxy-5′-(4-chlorophenyl)-6,7-didehydro-4,5α-epoxy-3-hydroxy-17-methylpyrido[2′,3′:6,7]morphinan] | 17 ± 1 nM | – | 280 to 284 °C | 84 ± 7 nM | 4.9 | – | 112 ± 4 nM | no stim | – | – | – | 4620 ± 1440 nM | 55 ± 8% | 6.6 | – | fold weaker in binding to DOR compared to 14-benzyloxy counterpart [1]: 10 fold; agonist activity KOR EC50 [6, 10]: no stim; functional activity profile at MOR [2]: weak MOR agonist potency and partial efficacy
11 | CN1CCC23c4c5ccc(O)c4OC2c2ncc(-c4ccc(Cl)cc4)cc2CC3(OC(=O)Cc2ccccc2)C1C5 (stereo not drawn) [Compound 18e, 5′-(4-Chlorophenyl)-6,7-didehydro-4,5α-epoxy-3-hydroxy-17-methyl-14-(phenylacetoxy)pyrido[2′,3′:6,7]morphinan] | 0.97 ± 0.04 nM | – | 194 to 196 °C | 1.43 ± 0.08 nM | 1.5 | – | 17 ± 1 nM | – | 109 ± 24 nM | 36 ± 2% | – | 87 nM | – | 18 | weak to potent partial agonist activity at DOR | agonist activity MOR Emax [2]: 122 ± 3%; Emax [5]: 27 ± 3%
12 | CN1CCC23c4c5ccc(O)c4OC2c2ncc(-c4ccc(Cl)cc4)cc2CC3(OC(=O)CCc2ccccc2)C1C5 (stereo not drawn) [Compound 18f, 5′-(4-Chlorophenyl)-6,7-didehydro-4,5α-epoxy-3-hydroxy-17-methyl-14-(3-phenylpropionyloxy)pyrido[2′,3′:6,7]morphinan] | 0.96 ± 0.05 nM | – | 242 to 244 °C | 0.94 ± 0.05 nM | 0.98 | 4.6 | – | – | 136 ± 60 nM | 16 ± 2% | 4.41 ± 0.23 nM | 48 nM | > 100% | – | weak to potent partial agonist activity at DOR | agonist activity MOR Emax [2]: 105 ± 2%; Emax [5]: 59 ± 2%
13 | Oc1ccc2c3c1OC1c4ncc(-c5ccc(Cl)cc5)cc4C=C4C(C2)N(CC2CC2)CCC431 (stereo not drawn) [Compound 23, 5′-(4-Chlorophenyl)-17-(cyclopropylmethyl)-3-hydroxy-6,7,8,14-tetradehydro-4,5α-epoxypyrido[2′,3′:6,7]morphinan] | 2.71 ± 0.11 nM | no stim | 164 to 166 °C | 13 ± 0.4 nM | 4.8 | 2.2 | – | no stim | – | – | 5.97 ± 0.19 nM | – | – | – | – | agonist activity KOR EC50 [6, 10]: no stim; functional activity profile at MOR [2]: antagonists at MOR
14 | CN1CC[C@]23c4c5ccc(O)c4O[C@H]2[C@@H](O)C=C[C@H]3[C@H]1C5 [morphine, reference compound] | – | – | – | – | – | – | – | – | – | – | – | – | – | – | – | Antinociceptive A50 Values ([7]; icv): 0.43 nmol
